Results published in patent US9491946B2, “Ag loaded silica nanoparticle/nanogel formulation, methods of making, and methods of use” (University of Central Florida Research Foundation, Inc., priority 2011, dated 2016).

Assays:
S. aureus, ATTC 25923 = type: cell-based, Staphylococcus aureus; conditions: equivalent metallic Ag concentration
Description: (§1) Antibacterial properties of AgSiNP200 and AgSiNP50 were evaluated against Gram-positive, Bacillus subtilis (B. subtilis, ATCC 9372) and Staphylococcus aureus (S. aureus, ATTC 25923) and a Gram-negative, Escherichia coli (E. coli, ATCC 35218) organism. […] All the bacteria were obtained from the UCF Department of Molecular Biology and Microbiology Preparatory Laboratories) by Microbiology Department, University of Central Florida, Orlando. All the antibacterial assays were done using Mueller Hinton II medium (Fulka Analytical, USA).
(§2) The bacterial inhibition studies for the AgSiNP200 and AgSiNP50 were done using a method as described by Rastogi et al.^41. The procedure is briefly described below. Different concentrations of AgSiNP200 (metallic silver concentrations of 63.5 μg/ml, 38.1 μg/ml, 19.05 μg/ml, 9.53 μg/ml, 4.77 μg/ml, 2.68 μg/ml, 1.34 μg/ml, 953 ng/ml, 477 ng/ml, 95.3 ng/ml and 47.7 ng/ml) and AgSiNP50 (metallic silver concentrations of 30.24 μg/ml, 20.16 μg/ml, 10.08 μg/ml, 5.04 μg/ml, 2.52 μg/ml, 1.26 μg/ml, 630 ng/ml and 63 ng/ml) were prepared in sterile Mueller Hinton II broth in sterile tubes. To achieve uniform growth for this comparative study, all the tubes contained same amount of broth. We have used 0.85% of sterile saline to make up the volume to 0.9 ml in each tube. In the next step, 0.1 ml of 10^6 CFU/ml of bacteria culture was added to each tube. […]

E. coli, ATCC 35218 [1] = type: cell-based, Escherichia coli; conditions: equivalent metallic Ag concentration
Description: as §1, §2

B. subtilis, ATCC 9372 [2] = test: bacterial growth inhibition in LB broth using turbidity (Example 2); type: cell-based, Bacillus subtilis; conditions: 24 hours, 37° C., OD 600 nm
Description: (§3) Antibacterial properties of C—S CuSiNP and AgSiNG materials were evaluated against a gram positive Bacillus subtilis (B. subtilis, ATCC 9372) and a gram negative Escherichia coli (E. coli, ATCC 35218) organism. For all antibacterial assays, bacterial concentration of 10^5 cells/mL was considered. Copper sulfate with same metallic copper concentration was used as positive controls and silica nanoparticle (without Cu loading) was used as negative control.
(§4) Two sets of different concentrations of C—S CuSiNP were made in LB broth (0.49, 1.2, 2.4, 4.9, 7.2 and 9.8 ppm copper concentration) to a final volume of 10 mL. 250 μL (10^5 cells/mL) of E. coli and B. subtilis were added to set 1 and 2 respectively. Silica nanoparticle was used as negative control and copper sulfate with equivalent amount of copper was used as positive control. […]
(§5) The growth inhibitory effects of C—S CuSiNP and AgSiNG against E. coli and B. subtilis were studied in liquid media (FIG. 2.3 and FIG. 2.4). Bacterial growth with different concentrations of C—S CuSiNP and AgSiNG (0.49 to 9.8 μg mL^−1) was monitored after 24 hours of incubation at 37° C. by measuring the optical density at 600 nm using Teysche800 spectrophotometer. Since the turbidity of silica based material can interfere with the optical density reading, the background measurement was subtracted to calculate the final reading.

B. subtilis, ATCC 9372 [3] = test: growth inhibition assay by turbidity (OD 600 nm), Mueller Hinton II broth; type: cell-based, Bacillus subtilis; conditions: equivalent metallic Ag concentration
Description: as §1, §2

E. coli, ATCC 35218 [4] = test: bacterial growth inhibition in LB broth using turbidity (Example 2); type: cell-based, Escherichia coli; conditions: 24 hours, 37° C., OD 600 nm
Description: as §3, §4, §5

O=[N+]([O-])[O-].[Ag+] [Ag nitrate, silver nitrate]
growth inhibition result in words (controls versus AgSiNP nanoformulations) (S. aureus, ATTC 25923): no significant difference in growth inhibition results
growth inhibition result in words (controls versus AgSiNP nanoformulations) (E. coli, ATCC 35218 [1]): no significant difference in growth inhibition results
silver concentration at which growth inhibition can be seen (B. subtilis, ATCC 9372 [2]): 2.4 ppm
growth inhibition result in words (controls versus AgSiNP nanoformulations) (B. subtilis, ATCC 9372 [3]): no significant difference in growth inhibition results
silver concentration at which growth inhibition can be seen (E. coli, ATCC 35218 [4]): 2.4 ppm
